The subject of this assay is Meloidogyne incognita. Description: Meloidogyne incognita test (MELGIN), gall formation on lettuce roots. As to conditions: 0.5 mg ai/seed, lettuce seed dressing; nematicidal action by formation of galls; 100% = no galls. It counts as in vivo. As for the experimental part: To produce a suitable preparation of active compound, 1 part by weight of active compound is mixed with the stated amounts of solvent and emulsifier, and the concentrate is diluted with water to the desired concentration.
Lettuce seeds are dressed with the desired amount of formononetin. Vessels are filled with soil infected with mycorrhiza, active compound solution, Meloidogyne incognita egg/larvae suspension and the treated lettuce seeds. The lettuce seeds germinate and the plants develop. On the roots, galls are formed.
After the desired period of time, the nematicidal action is determined in % by the formation of galls. 100% means that no galls have been found; 0% means that the number of galls on the treated plants corresponds to that of the untreated control.

The source of these data is patent US8334268B2, “Insecticidal active ingredient combinations (formononetins + insecticides)” (priority 2006, dated 2012).

Structures are written as SMILES.

For the compound `COc1ccc(-c2coc3cc(O)ccc3c2=O)cc1` [Formononetin of the formula (I), formononetin], the “Effect in % after 21 d” value amounted to 3.3%.
